Read-outs that look alike come from different tables or passages of the source.
How the values were obtained:
SW480 cells = assay: Cell growth assay (CellTiter-Glo 2.0), SW480 MSS cell line; details: Homo sapiens, SW480, 120 h, read-out: Cell Growth Inhibition GI50 SW480
HCT 116 cells = assay: Cell growth assay (CellTiter-Glo 2.0), HCT 116 MSI-H cell line; details: Homo sapiens, HCT-116, 120 h, read-out: Cell Growth Inhibition GI50 HCT-116
WRN C727 = target: T1, WRN C727 (Homo sapiens, UniProt Q14191); assay: Target engagement, in vitro (lysate), OCI-AML2; format: binding; details: read-out: OCI-AML2 WRN C727 TE50 in vitro (lysate)
T1 construct: endogenous in cells; host or cells: OCI-AML2
T1 sequence (Q14191 whole entry): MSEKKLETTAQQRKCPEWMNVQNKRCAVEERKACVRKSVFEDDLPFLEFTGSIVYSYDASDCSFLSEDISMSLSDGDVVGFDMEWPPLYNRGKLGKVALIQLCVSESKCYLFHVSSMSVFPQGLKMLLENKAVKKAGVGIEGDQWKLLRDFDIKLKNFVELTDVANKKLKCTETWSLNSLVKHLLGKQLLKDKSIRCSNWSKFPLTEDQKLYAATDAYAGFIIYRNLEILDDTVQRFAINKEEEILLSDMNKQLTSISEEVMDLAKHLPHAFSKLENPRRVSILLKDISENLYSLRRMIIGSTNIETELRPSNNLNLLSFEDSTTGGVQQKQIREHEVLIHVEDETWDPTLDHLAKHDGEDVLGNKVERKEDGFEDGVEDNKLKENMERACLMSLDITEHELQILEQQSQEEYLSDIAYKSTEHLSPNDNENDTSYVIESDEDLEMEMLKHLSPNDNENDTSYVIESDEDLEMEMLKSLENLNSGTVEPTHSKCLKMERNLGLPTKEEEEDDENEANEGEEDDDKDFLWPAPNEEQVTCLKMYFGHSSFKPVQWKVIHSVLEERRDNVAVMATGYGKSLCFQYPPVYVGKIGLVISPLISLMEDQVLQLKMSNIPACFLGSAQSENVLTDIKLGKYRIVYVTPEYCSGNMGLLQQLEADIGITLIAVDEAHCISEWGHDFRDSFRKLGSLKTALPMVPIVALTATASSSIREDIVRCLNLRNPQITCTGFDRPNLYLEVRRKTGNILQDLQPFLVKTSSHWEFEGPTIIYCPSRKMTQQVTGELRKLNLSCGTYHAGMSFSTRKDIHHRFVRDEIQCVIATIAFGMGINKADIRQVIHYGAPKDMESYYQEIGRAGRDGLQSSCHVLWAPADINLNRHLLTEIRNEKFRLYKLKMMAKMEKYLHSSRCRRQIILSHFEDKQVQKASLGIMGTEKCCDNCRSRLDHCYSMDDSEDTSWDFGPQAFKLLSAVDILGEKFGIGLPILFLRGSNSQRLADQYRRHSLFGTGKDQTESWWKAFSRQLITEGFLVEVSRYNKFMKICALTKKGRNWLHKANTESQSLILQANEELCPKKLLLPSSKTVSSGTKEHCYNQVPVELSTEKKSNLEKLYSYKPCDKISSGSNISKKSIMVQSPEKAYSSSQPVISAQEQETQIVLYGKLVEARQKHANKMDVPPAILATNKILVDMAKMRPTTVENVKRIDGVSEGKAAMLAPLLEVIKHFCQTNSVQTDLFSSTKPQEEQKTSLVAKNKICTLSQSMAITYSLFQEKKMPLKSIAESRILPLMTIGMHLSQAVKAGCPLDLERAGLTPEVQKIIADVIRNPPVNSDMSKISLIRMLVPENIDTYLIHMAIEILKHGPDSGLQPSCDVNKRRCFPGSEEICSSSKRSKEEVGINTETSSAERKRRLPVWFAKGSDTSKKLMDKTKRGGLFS
Description: Cells or cell lysates were treated with a dose response of compound followed by probe treatment, which labels solvent exposed cysteines. Proteins were enzymatically digested with trypsin and probe-labelled peptides were enriched with streptavidin. Isolated peptides were then separated using reversed-phase liquid chromatography on a C18 column (Dionex Ultimated 3000 nano-LC, Thermo). Peptides were analyzed by parallel reaction monitoring mass spectrometry (Exploris 120, Thermo).
Target engagement (%) is calculated relative to DMSO treated control samples.

[1] = target: hWRN(519-1227)_C-H3CV-GFP-10His (Homo sapiens, UniProt Q14191); assay: Helicase Assay for WRN Inhibition (ATP-dependent, fluorescence based)
Chain of hWRN(519-1227)_C-H3CV-GFP-10His (Q14191 519-1227): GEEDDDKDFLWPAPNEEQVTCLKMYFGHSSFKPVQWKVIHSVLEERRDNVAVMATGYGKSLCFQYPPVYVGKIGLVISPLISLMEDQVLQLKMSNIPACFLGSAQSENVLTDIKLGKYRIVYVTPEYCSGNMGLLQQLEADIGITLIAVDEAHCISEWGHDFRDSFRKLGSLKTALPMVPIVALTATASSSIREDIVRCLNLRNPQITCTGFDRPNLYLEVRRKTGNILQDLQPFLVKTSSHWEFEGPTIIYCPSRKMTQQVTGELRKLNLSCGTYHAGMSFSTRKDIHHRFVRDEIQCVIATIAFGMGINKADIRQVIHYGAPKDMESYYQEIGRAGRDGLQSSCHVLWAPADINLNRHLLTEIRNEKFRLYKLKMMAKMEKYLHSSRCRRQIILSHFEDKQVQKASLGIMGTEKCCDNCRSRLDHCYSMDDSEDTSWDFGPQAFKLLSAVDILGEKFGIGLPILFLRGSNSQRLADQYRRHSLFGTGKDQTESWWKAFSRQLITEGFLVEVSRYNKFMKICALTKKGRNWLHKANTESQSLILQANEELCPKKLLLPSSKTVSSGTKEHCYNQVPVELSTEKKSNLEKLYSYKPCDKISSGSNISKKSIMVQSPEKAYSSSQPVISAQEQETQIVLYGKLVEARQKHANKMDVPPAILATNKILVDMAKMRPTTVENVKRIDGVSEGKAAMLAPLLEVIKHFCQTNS

[2] = WRN Helicase IC50, 30 min preincubation with ATP, 30 min reaction

SMILES | GI50 (SW480 cells) [µM] | GI50 (HCT 116 cells) [µM] | IC50 (WRN C727) [µM] | IC50 [1, 2] [µM] | IC50 [1] [µM]
CS(=O)(=O)/C=C/[C@H](Cc1ccccc1)NC(=O)c1cnc(C2CC2)nc1Oc1ccccc1 (single isomer, unassigned) [Example 20] | 15.4 | 0.745 | 9.36 | 1.7 | 
CS(=O)(=O)/C=C\[C@H](Cc1ccccc1)NC(=O)c1cnc(C2CC2)nc1Oc1ccccc1 (single isomer, unassigned) [Example 21] | 14 | 3.1 | > 100 | 6.1 | 
CS(=O)(=O)/C=C\C1CN(C(=O)c2cnc(C3CC3)nc2Oc2ccccc2)C1 (single isomer, unassigned) [Example 23, (Z)-(2-cyclopropyl-4-phenoxypyrimidin-5-yl)(3-(2-(methylsulfonyl)vinyl)azetidin-1-yl)methanone] | 2.8 | 1.1 | 8.83 |  | 3.4
CS(=O)(=O)/C=C/C1CN(C(=O)c2cnc(C3CC3)nc2Oc2ccccc2)C1 (single isomer, unassigned) [Example 24, (E)-(2-cyclopropyl-4-phenoxypyrimidin-5-yl)(3-(2-(methylsulfonyl)vinyl)azetidin-1-yl)methanone] | > 10 | 7.7 | > 100 |  | 20
CS(=O)(=O)C=C1CN(C(=O)c2cnc([C@H]3C[C@@H](C)C3)nc2Oc2ccccc2)C1 (single isomer, unassigned) [Example 50, (2-((1s,3s)-3-methylcyclobutyl)-4-phenoxypyrimidin-5-yl)(3-((methylsulfonyl)methylene)azetidin-1-yl)methanone] | 7.5 | 0.0947 | 0.28 |  | 0.22
CS(=O)(=O)C=C1CN(C(=O)c2cnc([C@H]3C[C@H](C)C3)nc2Oc2ccccc2)C1 (single isomer, unassigned) [Example 51, (2-((1r,3r)-3-methylcyclobutyl)-4-phenoxypyrimidin-5-yl)(3-((methylsulfonyl)methylene)azetidin-1-yl)methanone] | 8.52 | 0.184 | 3.3 |  | 0.45
CC(C)(C)c1ncc(C(=O)N[C@H](/C=C/S(C)(=O)=O)Cc2ccccc2)c(Oc2ccccc2)n1 (single isomer, unassigned) [Example 60] | 13 | 0.2 | 2.87 | 0.41 | 
CC(C)(C)c1ncc(C(=O)N[C@H](/C=C\S(C)(=O)=O)Cc2ccccc2)c(Oc2ccccc2)n1 (single isomer, unassigned) [Example 61] | 7.5 | 1.3 | > 100 | 3.5 | 
CC(/C=C/S(C)(=O)=O)NC(=O)c1cc(F)c(C2=CCCC2)nc1Oc1ccccc1 (stereo in doubt) [Example 206, (R,E)-6-(cyclopent-1-en-1-yl)-5-fluoro-N-(4-(methylsulfonyl)but-3-en-2-yl)-2-phenoxynicotinamide] | 8.6 | 5.7 | 20 |  | 11
CS(=O)(=O)/C=C/[C@@H](NC(=O)c1cnc(C2CCCC2)nc1Oc1ccccc1)C1CCC1 [Example 9, (S,E)-N-(1-cyclobutyl-3-(methylsulfonyl)allyl)-2-cyclopentyl-4-phenoxypyrimidine-5-carboxamide] | 15 | 0.043 | 0.31 | 0.16 | 
COC[C@@H](/C=C/S(C)(=O)=O)NC(=O)c1cnc(C2CCCC2)nc1Oc1ccccc1 [Example 10, (R,E)-2-cyclopentyl-N-(1-methoxy-4-(methylsulfonyl)but-3-en-2-yl)-4-phenoxypyrimidine-5-carboxamide] | 27.4 | 0.0724 | 0.24 | 0.13 | 
C[C@@H](/C=C/S(=O)(=O)C1CC1)NC(=O)c1cnc(C2CC2)nc1Oc1ccccc1 [Example 25, (S,E)-2-cyclopropyl-N-(4-(cyclopropylsulfonyl)but-3-en-2-yl)-4-phenoxypyrimidine-5-carboxamide] | > 10 | 5 | > 100 | 12 | 
CS(=O)(=O)/C=C1/CCN(C(=O)c2cnc(C3CC3)nc2Oc2ccccc2)C1 [Example 26, (2-cyclopropyl-4-phenoxy-pyrimidin-5-yl)-[(3Z)-3-(methylsulfonylmethylene)pyrrolidin-1-yl]methanone] | 54 | 18 | > 100 |  | 103
CS(=O)(=O)/C=C/[C@H](CC1CC1)NC(=O)c1cnc(C2CC2)nc1Oc1ccccc1 [Example 28, (S,E)-2-cyclopropyl-N-(1-cyclopropyl-4-(methylsulfonyl)but-3-en-2-yl)-4-phenoxypyrimidine-5-carboxamide] | 37.1 | 0.606 | 6.74 | 1.5 | 
CSC[C@@H](/C=C/S(C)(=O)=O)NC(=O)c1cnc(C2CC2)nc1Oc1ccccc1 [Example 31, (R,E)-2-cyclopropyl-N-(4-(methylsulfonyl)-1-(methylthio)but-3-en-2-yl)-4-phenoxypyrimidine-5-carboxamide] | 28 | 0.63 | 3.24 | 0.88 | 
CS(=O)(=O)/C=C/[C@@H](NC(=O)c1cnc(C2CC2)nc1Oc1ccccc1)C1CCOCC1 [Example 33, (S,E)-2-cyclopropyl-N-(3-(methylsulfonyl)-1-(tetrahydro-2H-pyran-4-yl)allyl)-4-phenoxypyrimidine-5-carboxamide] | > 100 | 1.3 | 4.64 | 2.5 | 

More lines, now with the values ahead:

GI50 (SW480 cells) [µM] | GI50 (HCT 116 cells) [µM] | IC50 (WRN C727) [µM] | IC50 [1, 2] [µM] | IC50 [1] [µM] | SMILES
8.2 | 1.4 | 9.62 | 2.2 |  | C[C@@H]1CC[C@H](c2ncc(C(=O)N[C@@H](C)/C=C/S(C)(=O)=O)c(Oc3ccccc3)n2)C1 (racemic) [Example 215]
> 11.9 | 0.124 | 0.99 | 0.287 |  | C[C@@H](/C=C/S(C)(=O)=O)NC(=O)c1cnc([C@H]2C[C@@H](C)C2)nc1Oc1ccccc1 (single isomer, unassigned) [Example 46]
> 12.7 | 0.291 | 0.99 | 0.77 |  | C[C@@H](/C=C/S(C)(=O)=O)NC(=O)c1cnc([C@H]2C[C@H](C)C2)nc1Oc1ccccc1 (single isomer, unassigned) [Example 47]
5.97 | 0.0365 | 0.035 | 0.062 |  | CS(=O)(=O)/C=C/[C@@H](NC(=O)c1cnc([C@H]2C[C@@H](C)C2)nc1Oc1ccccc1)C1CC1 (single isomer, unassigned) [Example 48]
5.19 | 0.0602 | 0.22 | 0.092 |  | CS(=O)(=O)/C=C/[C@@H](NC(=O)c1cnc([C@H]2C[C@H](C)C2)nc1Oc1ccccc1)C1CC1 (single isomer, unassigned) [Example 49]
> 19.5 | 1.16 | 14 | 2.7 |  | CC(C)[C@@H](/C=C/S(C)(=O)=O)NC(=O)c1cnc(C2CCCC2)nc1Oc1ccccc1 [Example 7, (S,E)-2-cyclopentyl-N-(4-methyl-1-(methylsulfonyl)pent-1-en-3-yl)-4-phenoxypyrimidine-5-carboxamide]
6.72 | 0.044 | 0.195 | 0.0758 |  | CS(=O)(=O)/C=C/[C@@H](NC(=O)c1cnc(C2CCCC2)nc1Oc1ccccc1)C1CC1 [Example 8, (S,E)-2-cyclopentyl-N-(1-cyclopropyl-3-(methylsulfonyl)allyl)-4-phenoxypyrimidine-5-carboxamide]
24.3 | 0.0849 | 0.65 | 0.18 |  | CC(C)c1ncc(C(=O)N[C@H](/C=C/S(C)(=O)=O)C2CC2)c(Oc2ccccc2)n1 [Example 16, (S,E)-N-(1-cyclopropyl-3-(methylsulfonyl)allyl)-2-isopropyl-4-phenoxypyrimidine-5-carboxamide]
37.4 | 0.165 | 1.68 | 0.645 |  | CS(=O)(=O)/C=C/[C@@H](NC(=O)c1cnc(C2CC2)nc1Oc1ccccc1)C1CCC1 [Example 29, (S,E)-N-(1-cyclobutyl-3-(methylsulfonyl)allyl)-2-cyclopropyl-4-phenoxypyrimidine-5-carboxamide]
16 | 0.12 | 1.43 | 0.45 |  | CS(=O)(=O)/C=C/[C@@H](NC(=O)c1cnc(C2CC2)nc1Oc1ccccc1)C1CC(F)(F)C1 [Example 30, (S,E)-2-cyclopropyl-N-(1-(3,3-difluorocyclobutyl)-3-(methylsulfonyl)allyl)-4-phenoxypyrimidine-5-carboxamide]
17.7 | 0.059 | 0.45 | 0.185 |  | CS(=O)(=O)/C=C/[C@@H](NC(=O)c1cnc(CC2CC2)nc1Oc1ccccc1)C1CC1 [Example 36, (S,E)-N-(1-cyclopropyl-3-(methylsulfonyl)allyl)-2-(cyclopropylmethyl)-4-phenoxypyrimidine-5-carboxamide]

— patent US20250188040A1, “PHARMACEUTICAL COMPOSITIONS COMPRISING WRN HELICASE INHIBITORS” (Vividion Therapeutics, Inc., priority 2022, published 2025)
